Measurements as given in patent publication US4208410A, “Dibenzo[d,g][1,3,6]dioxazocine derivatives” (priority 1977, dated 1980).
Counter-ions that a name gives are not always drawn. Like-named read-outs stand apart in the source and are kept apart here.

Legend:
[1] = Acute toxicity in white mice, peroral; settings: mouse, in vivo, po, white mice CFLP
Description: Acute toxicity of the compounds was tested on white mice from the strain CFLP. Administration was effected perorally.

mice [2] = assay: Local anaesthetic activity (Acta Chirurg. Scand. 116, 351 (1958)); type: in vivo; settings: for EC50 (concentration at which the local anaesthetic activity amounted to 50%): 0.25% and 0.5% solutions tested; for LD50/EC50: local anaesthetic activity
Description: In order to observe the local anaesthetic activity of the instant compounds 0.25% and 0.5% solution thereof were tested following the method described in Acta Chirurg. Scand. 116, 351 (1958). The test animals were mice.

mice [3] = assay: Duration of the local anaesthetic effect; type: in vivo
[4] = system: tremor induced by tremorine; assay: Inhibition of tremor induced by tremorine (Science, 124, 79/1956/); type: in vivo, white mice; settings: for ED50: Mus musculus, read-out: ED50, inhibition of tremor by tremorine
Description: (§1) This activity was tested on white mice, on the basis of the inhibition of tremor induced by tremorine [1,1'-(2-butynylene)-dipyrrolidine] and of nicotine lethality. For comparison Trihexyphenidyl [α-cyclohexyl-α-phenyl-1-piperidinepropanol hydrochloride] and L-DOPA [L-(-)-β-(3,4-dihydroxyphenyl)alanine] are used.

nicotine lethality = assay: animal or person; type: in vivo, white mice; settings: po; for ED50: Mus musculus, read-out: ED50, inhibition of nicotine lethality; for LD50/ED50, inhibition of nicotine lethality: mouse, in vivo
Description: as §1

SMILES	LD50 [1] [mg/kg]	EC50 (concentration at which the local anaesthetic activity amounted to 50%) (mice [2]) [%]	LD50/EC50 (mice [2])	Duration of the effect (mice [3]; 0.25% solution) [min]	Duration of the effect (mice [3]; 0.5% solution) [min]	ED50 ([4]; po, white mice) [mg/kg]	LD50/ED50, inhibition of tremor by tremorine ([4]; mouse, in vivo, po)	ED50 (nicotine lethality) [mg/kg]	LD50/ED50, inhibition of nicotine lethality (nicotine lethality)	ED50 ([4]; po) [mg/kg]	LD50/ED50, inhibition of tremor by tremorine ([4]; p.o., white mice)
CN1CCN(CCN2c3ccccc3OCOc3ccc(Cl)cc32)CC1 [Example 7, 2-Chloro-12H-12-[2-(N-methylpiperazino)-ethyl]dibenzo[d,g][1,3,6]dioxazocine dihydrochloride]	600	0.13	4600	53	260	30	20	–	–	–	–
CN(C)CCCN1c2cc(Cl)ccc2OCOc2ccc(Cl)cc21 [Example 15, 2,10-Dichloro-12H-12-(3-dimethylaminopropyl)-dibenzo[d,g][1,3,6]dioxazocinemaleinate]	320	–	–	–	–	4.3	74.4	9	35.6	–	–
CC(CN(C)C)CN1c2ccccc2OCOc2ccc(Cl)cc21 (stereo not shown) [Example 6, 2-Chloro-12H-12-(2-methyl-3-dimethylaminopropyl)dibenzo[d,g][1,3,6]dioxazocine hydrochloride]	270	0.12	2250	67	161	11	25	–	25	–	–
N[C@@H](Cc1ccc(O)c(O)c1)C(=O)O [L-DOPA, L-(-)-β-(3,4-dihydroxyphenyl)alanine, reference compound]	–	–	–	–	–	> 500	< 5	500	< 10	–	–
CCN(CC)CC(=O)Nc1c(C)cccc1C [Lidocaine, 2-diethylamino-2',6'-acetoxy-xylidide, reference compound]	–	0.18	–	25	37	–	–	–	–	–	–
Cl.OC(CCN1CCCCC1)(c1ccccc1)C1CCCCC1 (stereo not drawn) [Trihexyphenidyl, α-cyclohexyl-α-phenyl-1-piperidinepropanol hydrochloride, reference compound]	–	–	–	–	–	–	–	80	–	15	24
Clc1ccc2c(c1)Nc1ccccc1OCO2 [Example 1, 2-Chloro-12H-dibenzo[d,g][1,3,6]dioxazocine]	> 2000	–	–	–	–	–	–	–	–	–	–
CN(C)CCCN1c2ccccc2OCOc2ccc(Cl)cc21 [Example 3, 2-Chloro-12H-12-(3-dimethylaminopropyl)-dibenzo[d,g][1,3,6]dioxazocine maleinate]	760	0.15	5060	71	103	8	95	14	54	–	–
Clc1ccc2c(c1)N(CCN1CCOCC1)c1ccccc1OCO2 [Example 8, 2-Chloro-12H-12-(2-morpholinoethyl)-dibenzo[d,g][1,3,6]dioxazocine maleinate]	> 2000	–	–	–	–	–	–	140	14	–	–
Clc1ccc2c(c1)N(CCN1CCCCC1)c1ccccc1OCO2 [Example 5, 2-Chloro-12H-12-(2-piperidinoethyl)-dibenzo[d,g][1,3,6]dioxazocine hydrochloride]	700	0.32	2180	34	65	18	38.9	60	12	–	–
